According to patent publication US20230321179A1, “N-ACYL AMINO ACID PRODUCTS AND USES” (THE REGENTS OF THE UNIVERSITY OF MICHIGAN, priority 2020, published 2023):
One block for each compound: values may come before it.

Assays:
[1] = system: C57BL/6J mice fed NASH diet; experiment: Treatment of NASH in mice with I.P. N-oleoyl leucine; format: in vivo; conditions: 10 mg/kg/d I.P.
Experimental: C57BL/6J mice were fed a standard diet (SD) or non-alcoholic steatohepatitis (NASH) diet for 16 weeks. After NASH confirmation, mice were randomized to receive 10 mg/kg/d (I.P.) N-oleoyl leucine (C18:1-Leu) or equivalent amounts of oleic acid (C18:1) or vehicle (EtOH) for an additional 6 weeks on the NASH diet. Control mice were fed the SD and administered vehicle.

[2] = system: HepG2 cells; experiment: Seahorse oxygen consumption rate and dependency on FAO; format: cell-based; conditions: 10 µM acute stimulation, increase attenuated by etomoxir 6 µM
Experimental: HepG2 cells were obtained from the American Type Culture Collection (ATCC) and cultured at 37° C. and 5% CO2 in Dulbecco’s Modified Eagle Medium (DMEM, Gibco) supplemented with 10% fetal bovine serum (FBS, Sigma-Aldrich) and 1% Penicillin-Streptomycin (Pen-Strep, Gibco). Oxygen consumption rate (OCR) and dependency on FAO were assessed using a Seahorse XFe96 Analyzer (Agilent). HepG2 cells were seeded at 2.5x10^4 cells/well in XF96 cell culture microplates (Agilent). The next day, XFe96 sensor cartridges were hydrated in accordance with the manufacturer’s instructions. Cells were treated (port 1) with N-acyl amino acids (10 µM) or vehicle (EtOH), Etomoxir (Agilent, 6 µM, port 2) and finally with rotenone+antimycin A (R/A, Agilent, port 3).

[3] = system: Apolipoprotein E-deficient (Apoe-/-) mice; experiment: Treatment of atherosclerosis in Western diet-fed mice with I.P. N-oleoyl leucine; format: in vivo; conditions: 7.5 mg/kg/d I.P., 4 weeks
Experimental: Apolipoprotein E-deficient (Apoe-′-) mice were fed a Western diet (WD) for 8 weeks. Mice were randomized to receive 7.5 mg/kg/d (I.P.) N-oleoyl leucine (C18:1-Leu) or equivalent amounts of oleic acid (C18:1) for an additional 4 weeks on the WD (n=10).

[4] = target: T1, PPARα (Homo sapiens, UniProt Q07869); experiment: PPREx3-TK-luciferase PPARα reporter assay in COS-1 cells; format: cell-based; conditions: 24 h
T1 construct: expressed in transfected cells; host or cells: COS-1
T1 sequence (Q07869 1-468): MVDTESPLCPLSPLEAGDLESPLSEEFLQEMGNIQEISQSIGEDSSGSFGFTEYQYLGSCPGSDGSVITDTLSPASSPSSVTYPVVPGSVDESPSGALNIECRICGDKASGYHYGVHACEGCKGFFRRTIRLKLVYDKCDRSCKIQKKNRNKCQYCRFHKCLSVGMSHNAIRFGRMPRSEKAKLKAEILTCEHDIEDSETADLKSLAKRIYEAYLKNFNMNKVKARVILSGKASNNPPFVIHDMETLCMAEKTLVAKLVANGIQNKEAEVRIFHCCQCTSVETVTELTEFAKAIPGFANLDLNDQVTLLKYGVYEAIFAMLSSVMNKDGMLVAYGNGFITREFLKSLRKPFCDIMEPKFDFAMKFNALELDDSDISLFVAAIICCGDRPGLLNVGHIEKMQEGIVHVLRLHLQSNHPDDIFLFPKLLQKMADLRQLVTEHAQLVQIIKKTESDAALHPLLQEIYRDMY
Experimental: COS-1 and HepG2 cells were obtained from the American Type Culture Collection (ATCC) and cultured at 37° C. and 5% CO2 in Dulbecco’s Modified Eagle Medium (DMEM, Gibco) supplemented with 10% fetal bovine serum (FBS, Sigma-Aldrich) and 1% Penicillin-Streptomycin (Pen-Strep, Gibco). For luciferase assays, COS-1 cells were seeded in 96-well plates. At 60-70% confluence, transfection was performed using Lipofectamine 3000 (Invitrogen) with PPREx3-TK-luciferase, PPARα and Renilla constructs at 80 ng, 10 ng and 10 ng, respectively. 24 h post-transfection, cells were serum-starved and treated with 10 µM of the PPARα activator WY-14643 (Cayman Chemicals, 70730), 1 mM of glycine or tripepetide glycine-glycine-leucine or 10 µM of N-acyl amino acids for 24 h (Cayman Chemicals, C20:4-Gly 90051, C18:1-Leu 20064). Luciferase activity was assessed using the Dual-Luciferase Reporter Assay System (Promega) and normalized by Renilla.

[5] = system: HepG2 cells; experiment: TG biosynthesis and hydrolysis by [3H]-acetate incorporation; format: cell-based; conditions: 10 µM; for rate of TG biosynthesis: 3 h [3H]-acetate; for rate of TG hydrolysis: additional 3 h after [3H]-acetate withdrawal
Experimental: For the TG biosynthesis and hydrolysis assays, HepG2 cells were seeded in 12-well plates. At 60-70% confluence, cells were treated with N-acyl amino acids (10 µM) or vehicle (EtOH) in serum-free medium supplemented with 0.1% BSA and stimulated for 3 h at 37° C. with [3H]-acetate (3.3 µCi/ml, ART 0202, American Radiolabeled Chemicals) to assess the rate TG biosynthesis. In some wells, the cells were washed twice with PBS ([3H]-acetate withdrawal) and incubated for additional 3 h with N-acyl amino acids (10 µM) or vehicle (EtOH) in serum-free medium supplemented with 0.1% BSA to assess the rate TG hydrolysis. At the end of the above incubation periods, cells were washed with twice with PBS. Cellular lipids were extracted using hexane (≥99%, Sigma-Aldrich 32293) and isopropanol (≥99.5%, Fisher Scientific A426-4) at a 3:2 ratio (v:v), and the hexane phase was left to evaporate for 48 h. Next, lipids were separated by thin layer chromatography (TLC) on silica gel plates (60 F254, M1057150001, Fisher Scientific) and developed in hexane / ether (≥99.9%, 309966, Sigma-Alrich) / acetic acid (≥99.7%, A38-212, Fisher Scientific) at a 130:30:1.5 ratio (v:v:v). TG spots were visualized by iodine vapor (using an appropriate standard for identification) and [3H]-labels were counted by a Tri-Carb 2810TR liquid scintillation analyzer (PerkinElmer). Data were normalized to protein levels and presented as count per minutes (CPM)/mg cell protein.

[6] = system: C57BL/6J mice fed NASH diet; experiment: NASH diet mouse model, oral treatment with tripeptide glycine-glycine-leucine, glycine or leucine; format: in vivo
Experimental: To explore the therapeutic potential of […] against NASH, an experimental approach to model advanced NAFLD was used. As described, C57BL/6J mice were fed a high-fat, high-fructose and high-cholesterol diet (NASH diet) for 12 weeks. After confirming NASH, the mice were randomized to receive orally […] at 0.125 or 0.5 mg/g/day, equivalent amounts of leucine, glycine or H2O for 12 additional weeks on NASH diet. Mice fed low-fat control diet (CD) and administered H2O served as control. Animal procedures were approved (PRO00008239) by the Institutional Animal Care & Use Committee of the University of Michigan (U-M) and performed in accordance with the institutional guidelines. Seven weeks-old male C57BL/were from Jackson Laboratories. After one week of acclimation, mice were fed ad libitum either low-fat control diet (CD, Research Diets D17072805, 10% fat) or high-fat, high-fructose and high-cholesterol diet (NASH diet, Research Diets D17010103). After confirming NASH, the mice were randomized to receive orally […] (Beijing SL Pharmaceutical) at 0.125 or 0.5 mg/g/day, equivalent amounts of leucine (0.17 mg/g/day, Sigma-AldrichL8912), glycine (0.33 mg/g/day, Sigma-Aldrich G5417) or H2O for 12 additional weeks on NASH diet. All histological procedures were performed by the In Vivo Animal Core (IVAC) Histology Laboratory at the U-M. Technicians were blinded to experimental groups. Formalin-fixed tissues were processed through graded alcohols and cleared with xylene followed by infiltration with molten paraffin using an automated VIP5 or VIP6 tissue processor (TissueTek, Sakura-Americas). Using a Histostar Embedding Station (ThermoFisher Scientific), tissues were then sectioned on a […] rotary microtome (ThermoFisher Scientific) at 4 μm thickness and mounted on glass slides. Slides were stained for hematoxylin and eosin (H&E, ThermoFisher Scientific). For Sirius Red staining, slides were treated with 0.2 phosphomolybdic acid for 3 min and transferred to 0.1% Sirius Red saturated in picric acid (Rowley Biochemical Inc.) for 90 min, then transferred to 0.01N hydrochloric acid for 3 min. Frozen section processing was used for Oil Red O staining. Formalin-fixed liver samples were cryoprotected in 20% sucrose at 4° C. overnight, blotted, then liquid nitrogen-snap frozen in OCT compound (Tissue-Tek, Cat #4583) and stored at -80° C. until ready for cryosectioning. Prior to sectioning, frozen blocks were brought up to about -20° C., then sectioned at 5 μm on a Cryotome SME (Thermo-Shandon, Cat# 77200227). Slides were stored at -80° C. until stained. Prior to staining, liver slides were thawed to room temperature for 30 min. Slides were post-fixed in 10% Neutral Buffered Formalin for 20 min, rinsed in DDW, followed by rinsing in 60% isopropanol before being placed in working Oil Red O-isopropanol stain (Rowley Biochemical Inc., H-503-1B) for 5 min. Slides were then rinsed in 60% isopropanol followed by three changes of DDW. Then, slides were nuclear counterstained in Harris Hematoxylin and mounted in Aqua-Mount (Lerner Laboratories, Cat# 13800) aqueous mounting media. Immunohistochemical staining was performed on a […] automated immunohistochemical stainer (Biocare Medical) with blocking for endogenous peroxidases and non-specific binding, followed by detection using a horseradish peroxidase biotin-free polymer based commercial detection system, disclosure with diaminobenzidine chromogen, and nuclear counterstaining with hematoxylin. Specific to F4/80, (Bio-Rad ABD Serotec, Cat# MCA497), the rat monoclonal primary antibody (clone CI:A3-1) was diluted to 1:400 in DaVinci Diluent (Biocare Medical, Cat# PD900) and incubated for 60 min followed by detection using Rat-on-Mouse HRP-Polymer, (Biocare Medical, Cat# RT517) 2-step probe-polymer incubation for 10 and 30 min respectively. H&E staining was used to score NAFLD activity score (NAS). Steatosis was scored from 0-3 (0: <5% steatosis; 1: 5-33%; 2: 34-66%; 3: >67%). […]

[7] = NASH diet, oral treatment 12 weeks
[8] = NASH diet, oral treatment 12 weeks, endpoint

luciferase activity (PPARα activation), normalized by Renilla ([4]; 10 µM): significantly increased
Compound: CCCCCCCC/C=C\CCCCCCCC(=O)N[C@@H](CC(C)C)C(=O)O [N-oleoyl leucine]
body weight ([1]; 6 weeks, NASH diet): lowers
hepatomegaly ([1]; 6 weeks, liver weight to body weight ratio): significantly lowers
circulating liver enzymes ([1]; 6 weeks, ALT, AST, ALP at endpoint): lowers
NASH diet-induced hepatic and systemic inflammation ([1]; 6 weeks, F4/80, plasma CCL2, CCL5): significantly lowers
diet-induced NASH ([1]; 6 weeks, H&E scoring, NAS): significantly lowers
hepatic steatosis ([1]; 6 weeks, Oil red O histology): significantly lowers
NASH diet-induced hepatic fibrosis ([1]; 6 weeks, Sirius red fibrosis score): significantly lowers
systemic energy balance in NASH ([1]; CLAMS: RER, energy expenditure, food intake, total activity): no significant effect
adiposity ([1]; NASH diet, NMR body composition): without affecting
oxygen consumption rate (OCR) [2]: significantly increased
body weight ([3]; Western diet, vs oleic acid): no significant effects
plasma cholesterol ([3]; Western diet, vs oleic acid): no significant effects
atherosclerotic plaque area ([3]; aortic sinus H&E, vs oleic acid): significantly lowers
lesional macrophages ([3]; aortic sinus Mac-2, vs oleic acid): significantly lowers
rate of TG biosynthesis [5]: attenuated
rate of TG hydrolysis [5]: only N-arachidonoyl glycine (C20:4-Gly) significantly accelerated

luciferase activity (PPARα activation), normalized by Renilla ([4]; 10 µM): significantly increased
Compound: Cc1cccc(Nc2cc(Cl)nc(SCC(=O)O)n2)c1C [WY-14643, reference compound]

Compound: CCCCC/C=C\C/C=C\C/C=C\C/C=C\CCCC(=O)NCC(=O)O [N-arachidonoyl glycine]
oxygen consumption rate (OCR) [2]: significantly increased
luciferase activity (PPARα activation), normalized by Renilla ([4]; 10 µM): significantly increased
rate of TG biosynthesis [5]: attenuated
rate of TG hydrolysis [5]: significantly accelerated

Compound: NCC(=O)O [glycine]
decrease of hepatic levels of N-oleoyl glycine, N-arachidonoyl glycine and N-oleoyl leucine in NASH ([6]; LC-MS/MS of liver, chronic treatment): rescued
NASH diet-induced hepatomegaly [6, 7]: significantly reduced
hepatic fibrosis (Sirius Red staining) [6, 7]: lower
hepatic inflammation (F4/80 macrophage staining) [6, 7]: lower
hepatic steatosis (histological analyses) [6, 7]: lower
increase in plasma levels of alanine aminotransferase (ALT) [6, 8]: attenuated
increase in plasma levels of aspartate aminotransferase (AST) [6, 8]: attenuated
suppression of hepatic expression of PPARα and its target genes in NASH ([6]; RNA-sequencing, liver): reversed
luciferase activity (PPARα activation), normalized by Renilla ([4]; concentrations of up to 1 mM): neither glycine or tripepetide glycine-glycine-leucine showed a significant effect

luciferase activity (PPARα activation), normalized by Renilla ([4]; 10 µM): significantly increased
Compound: CCCCCCCC/C=C\CCCCCCCC(=O)NCC(=O)O [N-oleoyl glycine]
